The results in this text go back to ChEMBL document CHEMBL3400064, “Synthesis and biological evaluation of 2-arylbenzimidazoles targeting Leishmania donovani” (Bioorg Med Chem Lett, 2015).

Series [1] in a line: Cytotoxicity against mouse NIH/3T3 cells assessed as viability after 48 hrs by alamarBlue assay. To be noted: NIH3T3, 48 h. The class given is cell-based. (Resazurin is reduced to fluorescent resorufin, in cell work by metabolically active cells.)
The nature of series [2]: Cytotoxicity against mouse NIH/3T3 cells assessed as viability at 15 uM after 48 hrs by alamarBlue assay. It counts as cell-based, NIH3T3. Conditions: read-out: Activity.
The test system of series [3] is Leishmania donovani. The series is described as follows: Antileishmanial activity against Leishmania donovani MHOM/SD/1962/1S-Cl2d infected THP1 cells assessed as inhibition of intracellular […] amastigote after 48 hrs at 50 uM by Bright-Glo luciferase assay. The class given is functional, organism-based. Conditions: THP-1, 48 h.
Series [4] has as its system Leishmania donovani. The series is described as follows: Antileishmanial activity against axenic amastigote Leishmania donovani MHOM/SD/1962/1S-Cl2d assessed as inhibition of parasite growth after 24 hrs at 15 uM by alamarBlue assay. It counts as functional.
The subject of series [5] is Leishmania donovani. Briefly: Antileishmanial activity against Leishmania donovani MHOM/SD/1962/1S-Cl2d infected THP1 cells assessed as inhibition of intracellular […] amastigote at 5 uM after 48 hrs at 50 uM by Bright-Glo luciferase assay. The class given is functional, THP-1.
For series [6], the system named is Leishmania donovani. The series is described as follows: Antileishmanial activity against axenic amastigote Leishmania donovani MHOM/SD/1962/1S-Cl2d assessed as inhibition of parasite growth after 24 hrs at 50 uM by alamarBlue assay. The class given is functional.
Series [7] relates to Leishmania donovani. The series is described as follows: Antileishmanial activity against axenic amastigote Leishmania donovani MHOM/SD/1962/1S-Cl2d assessed as inhibition of parasite growth after 24 hrs at 5 uM by alamarBlue assay. The class given is functional.

One may read the IC50 as the concentration that gives 50% inhibition. For orientation: inhibition means the drop in the measured response relative to a control, in per cent. `O=C(Nc1cccc(-c2nc3ccccc3[nH]2)c1)C1CCCCC1`: the IC50 stood at 22.2 µM in series [1] and 8.8 µM in the series on Leishmania donovani [3]. The viability at 48 h, 15 µM in series [2] was 23.8%. In addition, the inhibition at 15 µM with Leishmania donovani [4] is 61%. The “inhibition (INH)” value in the series with Leishmania donovani [5] is 19.8%. In the series on Leishmania donovani [6], the inhibition at 50 µM turned out to be 68%. Also, in the series on Leishmania donovani [7], the inhibition at 5 µM is 41%.

Regarding `Cc1ccc2[nH]c(-c3cccc(NC(=O)c4cccs4)c3)nc2c1`, the IC50 was determined as 16.7 µM in series [1] and 10.5 µM in the series with Leishmania donovani [3]. Further, the viability at 48 h, 15 µM in series [2] worked out at 14.1%. Further, in the series on Leishmania donovani [4], the inhibition at 15 µM came out at 50%. Besides, the “inhibition (INH)” value in the series with Leishmania donovani [5] is reported as 4.1%. For the same compound, in the series on Leishmania donovani [6], the inhibition at 50 µM turned out to be 77%. Besides, the inhibition at 5 µM in the series with Leishmania donovani [7] was 36%.

`Cc1cccc2[nH]c(-c3cccc(NC(=O)c4cccs4)c3)nc12`: the figures for the IC50 (in series [1]; with Leishmania donovani [3]) were greater than 300 µM and 17.8 µM, respectively. In series [2], the viability at 48 h, 15 µM was determined as 5.3%. Moreover, the inhibition at 15 µM in the series on Leishmania donovani [4] came to 56%. In addition, in the series with Leishmania donovani [5], the “inhibition (INH)” value was found to be 46.4%. Also, the inhibition at 50 µM in the series with Leishmania donovani [6] was 83%. Moreover, the inhibition at 5 µM in the series with Leishmania donovani [7] came out at 32%.

Consider `Cn1c(-c2cccc(NC(=O)c3cccs3)c2)nc2ccccc21`, for which the IC50 amounted to 61.3 µM in series [1] and 22.1 µM in the series with Leishmania donovani [3]. The viability at 48 h, 15 µM in series [2] is -12.9%. In addition, the inhibition at 15 µM in the series on Leishmania donovani [4] was found to be 56%. Moreover, the “inhibition (INH)” value in the series on Leishmania donovani [5] stood at 27.7%. Besides, in the series on Leishmania donovani [6], the inhibition at 50 µM is 74%. In the series with Leishmania donovani [7], the inhibition at 5 µM was determined as 30%.

For the compound `O=C(Nc1ccccc1-c1nc2ccccc2[nH]1)NC1CCCCC1`, the IC50 in series [1] came out at 42.2 µM; with Leishmania donovani [3] it was 7.6 µM. For the same compound, the viability at 48 h, 15 µM in series [2] was -4.4%. Moreover, the inhibition at 15 µM in the series on Leishmania donovani [4] was found to be 65%. Also, in the series on Leishmania donovani [5], the “inhibition (INH)” value is 22.2%. Also, the inhibition at 50 µM in the series on Leishmania donovani [6] stood at 88%. Further, in the series on Leishmania donovani [7], the inhibition at 5 µM was determined as 36%.

As to `COc1ccc(C(=O)Nc2cccc(-c3nc4ccccc4[nH]3)c2)cc1`, the viability at 48 h, 15 µM in series [2] stood at 54.1%. Also, the inhibition at 15 µM with Leishmania donovani [4] amounted to 52%. In the series with Leishmania donovani [6], the inhibition at 50 µM amounted to 64%. Further, the inhibition at 5 µM with Leishmania donovani [7] was determined as 35%.

For `O=C(Nc1cccc(-c2nc3ccccc3[nH]2)c1)c1ccc(F)cc1`, the results for the IC50 (in series [1]; in the series on Leishmania donovani [3]) were 15.4 µM and 23.4 µM, respectively. Besides, the viability at 48 h, 15 µM in series [2] is -11.9%. For the same compound, the inhibition at 15 µM in the series with Leishmania donovani [4] was 50%. In the series with Leishmania donovani [5], the “inhibition (INH)” value was found to be 16%. Further, in the series on Leishmania donovani [6], the inhibition at 50 µM is 69%. In the series on Leishmania donovani [7], the inhibition at 5 µM was 32%.

On to `O=C(Nc1cccc(-c2nc3ccccc3[nH]2)c1)c1ccc(-c2ccccc2)cc1`, for which, in series [2], the viability at 48 h, 15 µM worked out at 88.7%. Further, the inhibition at 15 µM with Leishmania donovani [4] was 80%. For the same compound, the inhibition at 50 µM in the series with Leishmania donovani [6] was found to be 96%. The inhibition at 5 µM with Leishmania donovani [7] worked out at 41%.

Consider `Cc1cc(C)cc(C(=O)Nc2cccc(-c3nc4ccccc4[nH]3)c2)c1`, for which the inhibition at 15 µM in the series with Leishmania donovani [4] stood at 56%. Further, the inhibition at 50 µM in the series on Leishmania donovani [6] was 88%. Also, the inhibition at 5 µM in the series on Leishmania donovani [7] stood at 22%.

In the case of `Cc1ccc(C)c(C(=O)Nc2cccc(-c3nc4ccccc4[nH]3)c2)c1`, in the series with Leishmania donovani [4], the inhibition at 15 µM amounted to 28%. Moreover, the inhibition at 50 µM with Leishmania donovani [6] came to 78%. Moreover, the inhibition at 5 µM in the series with Leishmania donovani [7] stood at 15%.

For `COc1cc(OC)cc(C(=O)Nc2cccc(-c3nc4ccccc4[nH]3)c2)c1`, the inhibition at 15 µM in the series on Leishmania donovani [4] was 58%. Also, the inhibition at 50 µM in the series on Leishmania donovani [6] is 83%. Moreover, in the series with Leishmania donovani [7], the inhibition at 5 µM is 32%.

Turning to `O=C(Nc1cccc(-c2nc3ccccc3[nH]2)c1)c1cc(Cl)cc(Cl)c1`, the inhibition at 15 µM in the series on Leishmania donovani [4] came out at 44%. The inhibition at 50 µM in the series with Leishmania donovani [6] was 97%. Moreover, the inhibition at 5 µM in the series on Leishmania donovani [7] amounted to 28%.

As for `O=C(Nc1cccc(-c2nc3ccccc3[nH]2)c1)c1cc(Br)cc(Br)c1`, the inhibition at 15 µM with Leishmania donovani [4] was determined as 55%. For the same compound, the inhibition at 50 µM in the series on Leishmania donovani [6] was determined as 72%. Besides, in the series with Leishmania donovani [7], the inhibition at 5 µM amounted to 29%.

With `O=C(Nc1cccc(-c2nc3ccccc3[nH]2)c1)c1cccs1`, the IC50 in series [1] came out at 15 µM; in the series on Leishmania donovani [3] it was 25.1 µM. Also, in series [2], the viability at 48 h, 15 µM is -0.6%. Moreover, the inhibition at 15 µM with Leishmania donovani [4] is 48%. Also, the “inhibition (INH)” value in the series with Leishmania donovani [5] was 21.7%. The inhibition at 50 µM in the series with Leishmania donovani [6] was found to be 66%. For the same compound, the inhibition at 5 µM with Leishmania donovani [7] came to 39%.
